Read-outs that look alike come from different tables or passages of the source.
Tests used:
[1] = system: IL-12/IL-18-induced pSTAT-3 in the colon; test: IL-12/IL-18-induced colonic pSTAT-3 response in mice after oral dosing; assay type: in vivo, C57BL/6 mice; conditions: Mus musculus, read-out: Percent Inhibition of colonic pSTAT-3
From the text: To understand the potential of local, enteric-selective JAK inhibitors to inhibit STAT signaling in colon tissue, two pharmacokinetic/pharmacodynamic (PK/PD) studies were developed. The first involved the combined intraperitoneal administration of IL-12 and IL-18 in mice which induces a systemic inflammatory response resulting in activation of the JAK/STAT pathway in colonic tissue which can be monitored by robust phosphorylation of STAT3 three hours after challenge. The second PK/PD model involves the ex vivo stimulation of mouse colon tissue with a cocktail of cytokines (IL-22, IL-6, and IFNα), measuring the inhibition of STAT3 phosphorylation after oral dosing of compound of Formula I.
The combined intraperitoneal administration of IL-12 and IL-18 induces colonic inflammation in mice (Chikano S, et al. Gut 47(6),779-786 (2000) “IL-18 and IL-12 induce intestinal inflammation and fatty liver in mice in an IFN-gamma dependent manner”; Nold-Petry C, et al. Front Immunol. 8, 1531(2017) “Gp96 Antagonist Protects in Murine-Intestinal-Inflammation”). An inflammatory response in colonic tissue can be monitored by robust phosphorylation of STAT3 three hours after challenge with IL 12/IL-18. In this non-GLP study, the effect of the orally administered compound of Formula I was evaluated on STAT3 responses in mouse colonic tissue induced by systemic dosing of both IL-12 and IL 18.
(§1) C57BL/6 mice (6 to 8 weeks old) were randomized by weight and assigned to various treatment groups for each of two studies. Mice were challenged intraperitoneally with a combination of IL-12 (250 ng) and IL-18 (1 μg). To examine the effect of compound of Formula I on IL-12/IL-18-induced pSTAT-3 response, groups of mice were orally dosed with compound of Formula I 1 hour prior to IL-12/IL-18 challenge. Three hours after IL-12/IL-18 challenge, mice were euthanized with CO2 asphyxiation, blood was collected via cardiocentesis for PK analysis, and colon tissues were collected for measuring pSTAT-3 response and drug levels. Mice dosed orally with 20% 2-hydroxypropyl-β-cyclodextrin (HP-β-CD) were used as vehicle controls. Two independent studies (S-1 and S-2) were conducted to examine the effect of compound of Formula I on IL-12/IL-18-induced colonic pSTAT-3 response in mice. […] Serum levels were measured at 30 minutes and 4 hours (terminal) after dosing. […] Colon drug levels were measured 4 hours after dosing. […] Colonic exposure of compound of Formula I increased in a dose-dependent fashion. At 25 mg/kg dose, colonic exposure of compound of Formula I was 30814.5±5552.5 ng/g and 18256.5±4118.8 ng/g tissue. […] Oral dosing of compound of Formula I in mice resulted, as shown in other studies, in minimum systemic exposure and lack of consistent dose-dependent pharmacodynamic responses in the blood.
Percent inhibition of colonic pSTAT-3 was determined using log transformed data following outlier removal.

[2] = Serum and colonic concentrations in IL-12/IL-18 studies S-1 and S-2; assay type: in vivo, C57BL/6 mice; conditions: mice, mean±SEM; for concentration at 4 h / concentration at 30 min: C57BL/6, mouse, po; for concentration at 30 min: read-out: Serum 30 min post dosing
Method: as §1
Data are presented as mean±SEM; N=3-7/group. BLOQ, below limit of quantification; min, minutes; h, hour(s).
Data are presented as mean±SEM; N=3 to 7/group. BLOQ, below limit of quantification; min, minutes; h, hour(s).

CC(C)(O)CNC(=O)Cc1nc2cnc3[nH]ccc3c2n1[C@H]1CC[C@H](CC#N)CC1 [Compound of Formula I, 2-(1-((1r,4r)-4-(Cyanomethyl)cyclohexyl)-1,6-dihydroimidazo[4,5-d]pyrrolo[2,3-b]pyridin-2-yl)-N-(2-hydroxy-2-methylpropyl)acetamide]
inhibition at 10 mg/kg ([1]; Study S-1, oral 10 mg/kg): 3.9% | inhibition at 25 mg/kg ([1]; Study S-1, oral 25 mg/kg): 25.8% | inhibition at 50 mg/kg ([1]; Study S-1, oral 50 mg/kg): 49.7% | inhibition at 10 mg/kg ([1]; Study S-2, oral 10 mg/kg): 33.1% | inhibition at 25 mg/kg ([1]; Study S-2, oral 25 mg/kg): 61.2% | inhibition at 50 mg/kg ([1]; Study S-2, oral 50 mg/kg): 66.1% | concentration at 4 h ([2]; colon, 10 mg/kg, S-1, oral 10 mg/kg, read-out: Colon 4 h post dosing): 6600 ± 787 ng/g | concentration at 4 h ([2]; colon, 10 mg/kg, S-2, oral 10 mg/kg, read-out: Colon 4 h post dosing): 10100 ± 1300 ng/g | concentration at 4 h ([2]; colon, 25 mg/kg, S-1, oral 25 mg/kg, read-out: Colon 4 h post dosing): 30800 ± 5550 ng/g | concentration at 4 h ([2]; colon, 25 mg/kg, S-2, oral 25 mg/kg, read-out: Colon 4 h post dosing): 18300 ± 4120 ng/g | concentration at 4 h ([2]; colon, 50 mg/kg, S-1, oral 50 mg/kg, read-out: Colon 4 h post dosing): 59600 ± 11300 ng/g | concentration at 4 h ([2]; colon, 50 mg/kg, S-2, oral 50 mg/kg, read-out: Colon 4 h post dosing): 35600 ± 5560 ng/g | concentration at 30 min ([2]; serum, 10 mg/kg, S-1, oral 10 mg/kg): 7.4 ± 1.4 nM | concentration at 30 min ([2]; serum, 10 mg/kg, S-2, oral 10 mg/kg): 7 ± 0.7 nM | concentration at 30 min ([2]; serum, 25 mg/kg, S-1, oral 25 mg/kg): 21.8 ± 5.5 nM | concentration at 4 h ([2]; serum, 25 mg/kg, S-1, oral 25 mg/kg, read-out: Serum 4 h post dosing): 25 ± 20.3 nM | concentration at 30 min ([2]; serum, 25 mg/kg, S-2, oral 25 mg/kg): 70.5 ± 60.4 nM | concentration at 4 h ([2]; serum, 25 mg/kg, S-2, oral 25 mg/kg, read-out: Serum 4 h post dosing): 45.1 ± 24 nM | concentration at 30 min ([2]; serum, 50 mg/kg, S-1, oral 50 mg/kg): 122 ± 87.2 nM | concentration at 4 h ([2]; serum, 50 mg/kg, S-1, oral 50 mg/kg, read-out: Serum 4 h post dosing): 19.7 ± 8 nM | concentration at 30 min ([2]; serum, 50 mg/kg, S-2, oral 50 mg/kg): 38.8 ± 7.4 nM | concentration at 4 h ([2]; serum, 50 mg/kg, S-2, oral 50 mg/kg, read-out: Serum 4 h post dosing): 131 ± 108 nM | Serum 4 h post dosing ([2]; S-1, oral 10 mg/kg): BLOQ | Serum 30 min post dosing ([2]; S-1, oral 10 mg/kg, 10 mg/kg): 7.4 ± 1.4 nM | Colon 4 h post dosing ([2]; S-1, oral 25 mg/kg, 25 mg/kg): 30814.5 ± 5552.5 ng/g | Serum 30 min post dosing ([2]; S-1, oral 25 mg/kg, 25 mg/kg): 21.8 ± 5.5 nM | Serum 30 min post dosing ([2]; S-1, oral 50 mg/kg, 50 mg/kg): 121.7 ± 87.2 nM | Serum 4 h post dosing ([2]; S-2, oral 10 mg/kg): BLOQ | Serum 30 min post dosing ([2]; S-2, oral 10 mg/kg, 10 mg/kg): 7.0 ± 0.7 nM | Colon 4 h post dosing ([2]; S-2, oral 25 mg/kg, 25 mg/kg): 18256.5 ± 4118.8 ng/g | Serum 30 min post dosing ([2]; S-2, oral 25 mg/kg, 25 mg/kg): 70.5 ± 60.4 nM | Serum 30 min post dosing ([2]; S-2, oral 50 mg/kg, 50 mg/kg): 38.8 ± 7.4 nM

Reference: US12390451B2, “Small molecule inhibitor of the JAK family of kinases” (Janssen Pharmaceutica NV, priority 2021, dated 2025)
